Reference: patent US20230365592A1 (Agios Pharmaceuticals, Inc., priority 2022, published 2023)

Target: T1, human PAH with the R408W mutation (Homo sapiens, UniProt P00439, R408W)
T1 construct: expressed in transfected cells
T1 sequence (P00439 1-452 R408W): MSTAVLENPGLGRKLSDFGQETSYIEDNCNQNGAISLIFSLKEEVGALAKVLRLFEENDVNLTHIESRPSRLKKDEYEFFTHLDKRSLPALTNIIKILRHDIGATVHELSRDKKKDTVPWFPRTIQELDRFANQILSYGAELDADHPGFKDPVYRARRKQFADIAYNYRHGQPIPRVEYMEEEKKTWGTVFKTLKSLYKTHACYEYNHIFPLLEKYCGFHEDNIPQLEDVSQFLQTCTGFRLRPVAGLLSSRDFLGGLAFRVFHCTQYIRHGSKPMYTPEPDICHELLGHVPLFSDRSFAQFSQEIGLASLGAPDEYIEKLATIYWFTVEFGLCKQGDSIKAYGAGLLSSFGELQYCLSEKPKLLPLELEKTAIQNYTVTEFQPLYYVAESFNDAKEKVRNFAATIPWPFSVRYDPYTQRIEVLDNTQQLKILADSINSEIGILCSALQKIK
Assay: Cell Based Phenylalanine Flux Assay;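 further: after compound treatment, cells received sepiapterin plus isotope-labelled Phenylalanine for 4 hours, then labelled Tyrosine in the medium was quantified, 10-point 2-fold dilution series run in duplicate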
Conditions: A375 cells expressing human R408W PAH; 24 hrs compound incubation; 13C-Tyrosine by LC-MS; average where tested multiple times; read-out: AC50

Going from O=C(c1oc(C2CC2)nc1C(F)F)N1CCc2[nH]cnc2[C@H]1c1cc2ccccn2n1 [Example 632, (S)-(2-cyclopropyl-4-(difluoromethyl)oxazol-5-yl)(4-(pyrazolo[1,5-a]pyridin-2-yl)-6,7-dihydro-1H-imidazo[4,5-c]pyridin-5(4H)-yl)methanone] to O=C(c1oc(C2CC2)nc1C(F)F)N1CCc2[nH]cnc2[C@@H]1c1cc2ccccn2n1 [Example 633, (R)-(2-cyclopropyl-4-(difluoromethyl)oxazol-5-yl)(4-(pyrazolo[1,5-a]pyridin-2-yl)-6,7-dihydro-1H-imidazo[4,5-c]pyridin-5(4H)-yl)methanone], the AC50 rises from under 500 nM to over 5000 nM.

Compared with O=C(CC1(O)CCC1)N1CCc2[nH]cnc2[C@H]1c1cc2ccccn2n1 [Example 634, (S)-2-(1-hydroxycyclobutyl)-1-(4-(pyrazolo[1,5-a]pyridin-2-yl)-6,7-dihydro-1H-imidazo[4,5-c]pyridin-5(4H)-yl)ethanone], O=C(CC1(O)CCC1)N1CCc2[nH]cnc2[C@@H]1c1cc2ccccn2n1 [Example 635, (R)-2-(1-hydroxycyclobutyl)-1-(4-(pyrazolo[1,5-a]pyridin-2-yl)-6,7-dihydro-1H-imidazo[4,5-c]pyridin-5(4H)-yl)ethanone] is higher in AC50: under 500 nM for the first, 1000 to 5000 nM for the second.

Compared with O=C(N1CCc2[nH]cnc2[C@H]1c1cc2ccccn2n1)C(F)(F)C1(O)CCC1 [Example 638, (S)-2,2-difluoro-2-(1-hydroxycyclobutyl)-1-(4-(pyrazolo[1,5-a]pyridin-2-yl)-6,7-dihydro-1H-imidazo[4,5-c]pyridin-5(4H)-yl)ethanone], O=C(N1CCc2[nH]cnc2[C@@H]1c1cc2ccccn2n1)C(F)(F)C1(O)CCC1 [Example 639, (R)-2,2-difluoro-2-(1-hydroxycyclobutyl)-1-(4-(pyrazolo[1,5-a]pyridin-2-yl)-6,7-dihydro-1H-imidazo[4,5-c]pyridin-5(4H)-yl)ethanone] is higher in AC50: under 500 nM for the first, 1000 to 5000 nM for the second.

Compared with O=C(c1nnc(-c2ccc(C(F)(F)F)cc2)o1)N1CCc2[nH]cnc2[C@H]1c1cc2ccccn2n1 [Example 642, (S)-(4-(pyrazolo[1,5-a]pyridin-2-yl)-6,7-dihydro-1H-imidazo[4,5-c]pyridin-5(4H)-yl)(5-(4-(trifluoromethyl)phenyl)-1,3,4-oxadiazol-2-yl)methanone], O=C(c1nnc(-c2ccc(C(F)(F)F)cc2)o1)N1CCc2[nH]cnc2[C@@H]1c1cc2ccccn2n1 [Example 643, (R)-(4-(pyrazolo[1,5-a]pyridin-2-yl)-6,7-dihydro-1H-imidazo[4,5-c]pyridin-5(4H)-yl)(5-(4-(trifluoromethyl)phenyl)-1,3,4-oxadiazol-2-yl)methanone] is higher in AC50: 500 to 1000 nM for the first, over 5000 nM for the second.

First: O=C(c1oc(-c2ccccn2)nc1C(F)F)N1CCc2[nH]cnc2[C@H]1c1cc2ccccn2n1 [Example 644, (S)-(4-(difluoromethyl)-2-(pyridin-2-yl)oxazol-5-yl)(4-(pyrazolo[1,5-a]pyridin-2-yl)-6,7-dihydro-1H-imidazo[4,5-c]pyridin-5(4H)-yl)methanone]
Second: O=C(c1oc(-c2ccccn2)nc1C(F)F)N1CCc2[nH]cnc2[C@@H]1c1cc2ccccn2n1 [Example 645, (R)-(4-(difluoromethyl)-2-(pyridin-2-yl)oxazol-5-yl)(4-(pyrazolo[1,5-a]pyridin-2-yl)-6,7-dihydro-1H-imidazo[4,5-c]pyridin-5(4H)-yl)methanone]
The AC50 of the first is lower: under 500 nM for the first, 1000 to 5000 nM for the second.

First: O=C(c1nnc(-c2cnn(CC(F)(F)F)c2)o1)N1CCc2[nH]cnc2[C@H]1c1cc2ccccn2n1 [Example 646, (S)-(4-(pyrazolo[1,5-a]pyridin-2-yl)-6,7-dihydro-1H-imidazo[4,5-c]pyridin-5(4H)-yl)(5-(1-(2,2,2-trifluoroethyl)-1H-pyrazol-4-yl)-1,3,4-oxadiazol-2-yl)methanone]
Second: O=C(c1nnc(-c2cnn(CC(F)(F)F)c2)o1)N1CCc2[nH]cnc2[C@@H]1c1cc2ccccn2n1 [Example 647, (R)-(4-(pyrazolo[1,5-a]pyridin-2-yl)-6,7-dihydro-1H-imidazo[4,5-c]pyridin-5(4H)-yl)(5-(1-(2,2,2-trifluoroethyl)-1H-pyrazol-4-yl)-1,3,4-oxadiazol-2-yl)methanone]
The AC50 of the first is lower: 1000 to 5000 nM for the first, over 5000 nM for the second.

Compared with O=C(c1nnc(-c2ccc(F)c(F)c2)o1)N1CCc2[nH]cnc2[C@H]1c1cc2ccccn2n1 [Example 648, (S)-(5-(3,4-difluorophenyl)-1,3,4-oxadiazol-2-yl)(4-(pyrazolo[1,5-a]pyridin-2-yl)-6,7-dihydro-1H-imidazo[4,5-c]pyridin-5(4H)-yl)methanone], O=C(c1nnc(-c2ccc(F)c(F)c2)o1)N1CCc2[nH]cnc2[C@@H]1c1cc2ccccn2n1 [Example 649, (R)-(5-(3,4-difluorophenyl)-1,3,4-oxadiazol-2-yl)(4-(pyrazolo[1,5-a]pyridin-2-yl)-6,7-dihydro-1H-imidazo[4,5-c]pyridin-5(4H)-yl)methanone] is higher in AC50: under 500 nM for the first, over 5000 nM for the second.

O=C(c1nnc(-c2cnn(C(F)F)c2)o1)N1CCc2[nH]cnc2[C@H]1c1cc2ccccn2n1 [Example 650, (S)-(5-(1-(difluoromethyl)-1H-pyrazol-4-yl)-1,3,4-oxadiazol-2-yl)(4-(pyrazolo[1,5-a]pyridin-2-yl)-6,7-dihydro-1H-imidazo[4,5-c]pyridin-5(4H)-yl)methanone] and O=C(c1nnc(-c2cnn(C(F)F)c2)o1)N1CCc2[nH]cnc2[C@@H]1c1cc2ccccn2n1 [Example 651, (R)-(5-(1-(difluoromethyl)-1H-pyrazol-4-yl)-1,3,4-oxadiazol-2-yl)(4-(pyrazolo[1,5-a]pyridin-2-yl)-6,7-dihydro-1H-imidazo[4,5-c]pyridin-5(4H)-yl)methanone] fall in the same range of AC50: 1000 to 5000 nM for the first, 1000 to 5000 nM for the second.

Going from O=C(c1nnc(-c2ccc(F)cc2F)o1)N1CCc2[nH]cnc2[C@H]1c1cc2ccccn2n1 [Example 652, (S)-(5-(2,4-difluorophenyl)-1,3,4-oxadiazol-2-yl)(4-(pyrazolo[1,5-a]pyridin-2-yl)-6,7-dihydro-1H-imidazo[4,5-c]pyridin-5(4H)-yl)methanone] to O=C(c1nnc(-c2ccc(F)cc2F)o1)N1CCc2[nH]cnc2[C@@H]1c1cc2ccccn2n1 [Example 653, (R)-(5-(2,4-difluorophenyl)-1,3,4-oxadiazol-2-yl)(4-(pyrazolo[1,5-a]pyridin-2-yl)-6,7-dihydro-1H-imidazo[4,5-c]pyridin-5(4H)-yl)methanone], the AC50 rises from under 500 nM to over 5000 nM.

First: Cc1cc(F)ccc1-c1nnc(C(=O)N2CCc3[nH]cnc3[C@H]2c2cc3ccccn3n2)o1 [Example 654, (S)-(5-(4-fluoro-2-methylphenyl)-1,3,4-oxadiazol-2-yl)(4-(pyrazolo[1,5-a]pyridin-2-yl)-6,7-dihydro-1H-imidazo[4,5-c]pyridin-5(4H)-yl)methanone]
Second: Cn1ccc(-c2nnc(C(=O)N3CCc4[nH]cnc4[C@@H]3c3cc4ccccn4n3)o2)n1 [Example 659, (R)-(5-(1-methyl-1H-pyrazol-3-yl)-1,3,4-oxadiazol-2-yl)(4-(pyrazolo[1,5-a]pyridin-2-yl)-6,7-dihydro-1H-imidazo[4,5-c]pyridin-5(4H)-yl)methanone]
The AC50 of the first is lower: under 500 nM for the first, 1000 to 5000 nM for the second.

Going from O=C(c1ccnn1C(F)F)N1CCc2[nH]cnc2[C@H]1c1cc2ccccn2n1 [Example 656, (S)-(1-(difluoromethyl)-1H-pyrazol-5-yl)(4-(pyrazolo[1,5-a]pyridin-2-yl)-6,7-dihydro-1H-imidazo[4,5-c]pyridin-5(4H)-yl)methanone] to O=C(c1ccnn1C(F)F)N1CCc2[nH]cnc2[C@@H]1c1cc2ccccn2n1 [Example 657, (R)-(1-(difluoromethyl)-1H-pyrazol-5-yl)(4-(pyrazolo[1,5-a]pyridin-2-yl)-6,7-dihydro-1H-imidazo[4,5-c]pyridin-5(4H)-yl)methanone], the AC50 rises from under 500 nM to over 5000 nM.

Compared with Cn1nccc1C(=O)N1CCc2[nH]cnc2[C@H]1c1cc2ccccn2n1 [Example 660, (S)-(1-methyl-1H-pyrazol-5-yl)(4-(pyrazolo[1,5-a]pyridin-2-yl)-6,7-dihydro-1H-imidazo(4,5-c]pyridin-5(4H)-yl)methanone], Cn1nccc1C(=O)N1CCc2[nH]cnc2[C@@H]1c1cc2ccccn2n1 [Example 661, (R)-(1-methyl-1H-pyrazol-5-yl)(4-(pyrazolo[1,5-a]pyridin-2-yl)-6,7-dihydro-1H-imidazo[4,5-c]pyridin-5(4H)-yl)methanone] is higher in AC50: 500 to 1000 nM for the first, over 5000 nM for the second.

First: Cn1cc(C(=O)N2CCc3[nH]cnc3[C@H]2c2cc3ccccn3n2)c(C(F)F)n1 [Example 662, (S)-(3-(difluoromethyl)-1-methyl-1H-pyrazol-4-yl)(4-(pyrazolo[1,5-a]pyridin-2-yl)-6,7-dihydro-1H-imidazo[4,5-c]pyridin-5(4H)-yl)methanone]
Second: Cn1cc(C(=O)N2CCc3[nH]cnc3[C@@H]2c2cc3ccccn3n2)c(C(F)F)n1 [Example 663, (R)-(3-(difluoromethyl)-1-methyl-1H-pyrazol-4-yl)(4-(pyrazolo[1,5-a]pyridin-2-yl)-6,7-dihydro-1H-imidazo[4,5-c]pyridin-5(4H)-yl)methanone]
The AC50 of the first is lower: under 500 nM for the first, 1000 to 5000 nM for the second.

In the case of Cn1cc(C(=O)N2CCc3[nH]cnc3[C@@H]2c2cc3ccccn3n2)c(Cl)n1 [Example 664, (R)-(3-chloro-1-methyl-1H-pyrazol-4-yl)(4-(pyrazolo[1,5-a]pyridin-2-yl)-6,7-dihydro-1H-imidazo[4,5-c]pyridin-5(4H)-yl)methanone], the AC50 was over 5000 nM.
